These results are taken from patent publication US11198741B2, “Medicines for topic use based on sulfated hyaluronic acid as activating or inhibiting agent of the cytokine activity” (Fidia Farmaceutici S.p.A., priority 2009, dated 2021).

The target of test [1] is T1, IL-6 receptor (Homo sapiens, UniProt P08887).
T1 construct: the line of human myeloma U266 was used, sensitive to the cytotoxic activity of IL-6, expressing its relative receptor; endogenous in cells; host or cells: U266 human myeloma (whole cells)
T1 sequence (P08887 20-468): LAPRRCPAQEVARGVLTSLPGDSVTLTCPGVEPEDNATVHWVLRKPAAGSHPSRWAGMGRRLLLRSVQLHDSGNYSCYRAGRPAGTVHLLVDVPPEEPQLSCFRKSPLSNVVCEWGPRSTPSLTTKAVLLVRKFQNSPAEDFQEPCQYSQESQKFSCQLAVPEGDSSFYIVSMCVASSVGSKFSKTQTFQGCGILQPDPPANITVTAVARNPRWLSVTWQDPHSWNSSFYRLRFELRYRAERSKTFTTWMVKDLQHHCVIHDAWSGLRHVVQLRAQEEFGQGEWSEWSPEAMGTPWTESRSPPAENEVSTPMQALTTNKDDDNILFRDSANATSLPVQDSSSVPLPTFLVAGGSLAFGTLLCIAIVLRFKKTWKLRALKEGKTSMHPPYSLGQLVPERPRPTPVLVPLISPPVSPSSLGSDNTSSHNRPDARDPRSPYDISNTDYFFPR
Kind of test: Inhibition of the binding of 125I-IL-6 to its receptor in U266 myeloma cells (Radioligand Binding). Particulars: 125I-IL-6 0.08 nM, sample 1 mg/ml, 4° C. 16 hours, both medium and low MW. The text has this:
These experiments were effected to evaluate the effectiveness of the samples tested (prepared according to Examples 1-3 and 4) on the capacity of inhibiting the binding of IL-6 to its receptor expressed in human myeloma U266, normally used in vitro for this type of experiment, carried out with iodinated cytokine components for an evaluation in Radioligand Binding assays. The experimental procedure was effected as described in Taga T. et al., J Exp Med, 1987, 166:967-981. In short, the line of human myeloma U266 was used, sensitive to the cytotoxic activity of IL-6, expressing its relative receptor. […] At the end of the incubation, the cells were washed with phosphate buffer, centrifuged at 9,000 rpm and the pellet counted in a γ-counter.

For test [2], the system named is Vesicular stomatitis virus: VSV. The test is classed as cell-based.
The subject of test [3] is Herpes Simplex Virus-2 (HSV-2: G, 196 and Lyons strain). Kind of test: Inhibition of viral cytopathogenicity in E6SM fibroblast cells, HSV-2. The class given is cell-based. Particulars: 2nd day of incubation, numbers only in FIG. 10.

Turning to “sulfated hyaluronic acid degree 3 [HAS3]”, the “inhibition of the binding of IL-6 to its receptor” value in test [1] came to 100%. Moreover, the “antiviral activity (inhibition of the cytopathogenicity of the virus) vs VSV” value in test [2] is “very powerful antiviral activity”. Further, the “antiviral activity (inhibition of the cytopathogenicity of the virus) vs HSV-2” value in test [3] was “powerful antiviral action”.
